Eight molecules from patent US20100317671A1, “XANTHINE-BASED CYCLIC GMP-ENHANCING RHO-KINASE INHIBITOR INHIBITS PHYSIOLOGICAL ACTIVITIES OF LUNG EPITHELIAL CELL LINE” (KAOHSIUNG MEDICAL UNIVERSITY, priority 2008, published 2010) can be followed below.

Molecules are shown by their SMILES. Structures can show the parent of a compound that is named as a salt.

Experiment [1] deals with inflammatory cells in the lung lavage. Put plainly: Inflammatory cells in lung lavage, bleomycin-induced IPF mice. Type of experiment: in vivo. The arrangement: WBC total (white blood cell total count) / NE (neutrophil) / LY (lymphocyte) / MO (monocyte) / EO (eosinophil) / BA (basophil): unit not given here. The note with it: lung lavage. How it is done:
The amounts of the total cell, the neutrophill, the lymphocyte, the monocyte, the eosinophill and the basophill are analyzed by an automatic animal blood cell analyzer for evaluating the extent of the inflammation. […] The mice are euthanatized by administering the Urathane in a dose of 37.5 mg/10 g. The larynx is opened, the trachea is picked out, cut and held by a forcepts and a 0.58 mm PE tube is slowly inserted the trachea for infusing 0.5 ml PBS. The PBS is incubated for 15 seconds and then collected after gently massaging the lung tissue. 1 c.c. lung lavage is obtained after the above steps are repeated twice. The lung lavage is collected and transferred into a centrifuged tube for centrifuging at 1,200 rpm at 4° C. for 6 mins. The supernatant is collected and stored at −80° C. for zymography, and the pellet is suspended in PBS for calculating the WBC count. The pellet of the alveolar lavage is suspended in PBS and transferred into an eppendorff. The amount and kind of the inflammatory cell such as WBC total, the lymphocyte, the monocyte, the neutrophil, the eosinophil and the basophil are analyzed by an automatic animal blood cell analyzer.

In experiment [2] the test system is inflammatory cells. Put plainly: H&E stain of lung tissue sections, bleomycin mice. Type of experiment: in vivo. The conditions noted are these: day 28. The text has this: In the histology observation, the bleomycin-induced mice show the pathology characteristic of lung fibrosis. In the lung tissue sections of the normal control group, the structure of the lung tissue is clear and has no inflammatory cells infiltration, the alveolar wall is complete and not being broaden, the lung atrophy and the vascular wall thickening are not found, and the inflammatory cells infiltration is not found in the bronchial cavity and the alveolar cavity. […] On day 28, the alveolar is dystructured, the macrophage aggregation can be seen in part of aveoli, the fibroblast and fibric cell proliferate, and the fibers are accumulated in the lung interstitium. In the treating group, the inflammatory state is inhibited well on day 7.
The with 10% formalin treated and freezed lung is placed in a tissue dehydrating machine, and the tissue is fixed, dehydrated, washed and rinsed in turn. The tissue is further prepared as a wax-embedded tissue by a tissue embedded machine through appropriate cooling. The wax-embedded tissue is cut by a sliding microtome. The slices about 4 μm are placed on the slides and extended in 35° C.-50° C. warm water, and then dried in a 56° C.-60° C. extender for staining
The slices are successively dehydrated via 50%-99.9% ethanol, incubated in xylene for 2 hrs and the incubation step is repeated twice. […]

Experiment [3] concerns collagen. Put plainly: Collagen amount, bleomycin-induced IPF mice. Type of experiment: in vivo. The note with it: day 28 after BLM. How it is done:
The amount of the collagen in the lung lavage is measured to reflect the fibrosis formation. […] (2) After the lung lavage is obtained, the chest of mice is opened and the lung lobes are cut one by one. […] The 1.5 ml eppendorffs are taken to arrange the calibration curve as follows. […] The eppendorff is then centrifuged at 12,000 rpm for 10 mins. The supernatant in the eppendorff is poured out slowly, 1 ml basic compound is added for dissolving the precipitation. After being violently shaken for 5 mins, the reaction is incubated for 3 hrs to stabilize the color. […] The amount of collagen is estimated through the 540 nm absorption measured by the ELISA reader.

A short description of experiment [4]: Body weight change, bleomycin-induced IPF mice. Type of experiment: in vivo. The protocol:
The six-week old mice are used in this experiment and divided into ten groups as follows. […] The six-week old male C57B1/6 mice are purchased from the National Laboratory Animal Center. […] After being […] pentobarbital in the dose of 0.52 mg/10 g, the mice is kept upright and positioned an otoscope into the larynx for looking into the trachea clearly. The bleomycin is loaded by a loading tip for intratracheal administration.

The test system of experiment [5] is TGF-β. Put plainly: TGF-β expression, bleomycin-induced lung fibrosis (EIA). The note with it: BM 60 mg/kg. Type of experiment: in vivo, mice. How it is done:
The increased amount of the collagen synthesis and the macrophage generation in alveolus may facilitate the formulation of TGF-β, and the expression of TGF-β is deeming as a biomarker of the lung fibrosis. KMUP-1HCl salt (1, 2.5 and 5 mg/kg), the Simvastatin (5 mg/kg), the KMUP-1-nicotinic acid complex (2.5 mg/kg), the KMUP-1-Simvastatinic acid complex (2.5 mg/kg) and KMUP-1-γ-polyglutamic acid complex (2.5 mg/kg) are orally administered to the mice for inhibiting the lung fibrosis induced by TGF-β expression in tracheal lavage solution that resulted from 60 mg/kg BM inhalation (Table 6). The state of the TGF-β expression in the lavage is measured by the enzyme immunoassay (EIA).

Experiment [6] concerns MMP-9. Put plainly: OVA-induced MMP-9 expression in lung tissue, asthma mice. Type of experiment: in vivo, BALB/c mice. The conditions noted are these: OVA + drug 5 mM spray, 30 mins/day, days 21 to 27; lung tissue; OVA + vehicle control 100%.
Method: The male BALB/c mice (20-23 g) are injected (i.p.) with OVA (5 mM, 30 mins), sensitized with OVA on day 1 and day 8 via i.p injection and activated by 2 mg aluminum hydroxide to which 2 μg OVA is absorbed. […] The asthmatic animals are divided into 5 groups, wherein the control group is only administered with saline spray and the remaining experimental groups are firstly administered with 1% OVA spray and then administered with the sprays of the related complex salts respectively as shown in Table 4. The inhibition of the expression of OVA-induced MMP-9 in lung tissue of BALB/c mice is measured.
A short description of experiment [7]: Monocrotaline (MCT)-induced pulmonary arterial hypertension, PABP. Type of experiment: in vivo, male Wistar rats. The note with it: MCT-treated rats; for Pulmonary arterial blood pressure (PABP), in words: 2.5 mg/kg orally every day; for PABP: 2.5 mg/kg/day p.o. The protocol:
The rats administered MCT (60 mg/kg) are caused pulmonary artery hypertension on day 21 after the intraperitoneal injection. The KMUP-1HCl salt (2.5 mg/kg), Simvastatin (2.5 mg/kg), KMUP-1-nicotinic acid complex (2.5 mg/kg), KMUP-1-citric acid complex (2.5 mg/kg), KMUP-1-Simvastatinic Acid complex (2.5 mg/kg) and KMUP-1-γ-polyglutamic acid complex (2.5 mg/kg) orally administered, or the KMUP-1-PGI2 complex (0.1 mM) inhaled every day may inhibit the pulmonary arterial blood pressure (PABP) in MCT-treated male Wistar rats.

Experiment [8] relates to eNOS. Put plainly: Short-term nebulization without OVA sensitization, lung tissue. Type of experiment: in vivo, mice. The conditions noted are these: L-NAME-pretreatment 12 mM, 30 mins. How it is done:
(§1) Short-term KMUP-1 (5 mM, 30 min) nebulization and pretreatment with L-NAME (12 mM, […]) are accomplished using a previously described method. Aerosols were generated by ultrasonic nebulizer from day 21 to 27. Mice were sacrificed on day 28. Three different experiments were performed on cohorts of 7-14 mice per experimental condition.
(§2) Please refer to FIGS. 22(B) and 23(B), the changes of eNOS and MMP-9 expression by KMUP-1 (2.5 mM, 30 mins) are reversed by L-NAME-pretreatment (12 mM, 30 mins).

For experiment [9], the system named is MMP-9. Described as above. The conditions noted are these: L-NAME-pretreatment 12 mM, 30 mins. Type of experiment: in vivo, mice. How it is done: as §1, §2

Consider `CC[C@H]1OC(=O)[C@H](C)[C@@H](O[C@H]2C[C@@](C)(OC)[C@@H](O)[C@H](C)O2)[C@H](C)[C@@H](O[C@@H]2O[C@H](C)C[C@H](N(C)C)[C@H]2O)[C@](C)(OC)C[C@@H](C)C(=O)[C@H](C)[C@@H](O)[C@]1(C)O` [Clarithromycin, reference compound], for which, in experiment [1] (day 7, dose 10 mg/kg), the “BA (basophil)” value stood at 0.02 ± 0.01, the “EO (eosinophil)” value is reported as 0.07 ± 0.02, the “LY (lymphocyte)” value stood at 0.56 ± 0.17 and the “MO (monocyte)” value came to 0.05 ± 0.02. Moreover, in experiment [1] (day 7, dose 10 mg/kg), the “NE (neutrophil)” value is listed as 0.2 ± 0.09 and the “WBC total (white blood cell total count)” value came out at 0.89 ± 0.3. For the same molecule, in experiment [1] (day 28, dose 10 mg/kg), the “BA (basophil)” value stood at 0.25 ± 0.16, the “EO (eosinophil)” value is given as 0.5 ± 0.33, the “LY (lymphocyte)” value was 1.64 ± 1.49 and the “MO (monocyte)” value is listed as 0.16 ± 0.16. Besides, in experiment [1] (day 28, dose 10 mg/kg), the “NE (neutrophil)” value turned out to be 0.68 ± 0.57 and the “WBC total (white blood cell total count)” value came to 3.23 ± 0.52. For the same molecule, the “Inflammation, H&E stain” value in experiment [2] is on record as “still has a significant inflammation phenomenon”. In experiment [3] (dose 10 mg/kg), the “The amount of collagen” value amounted to 86.07 ± 0.02 μg/lung. Besides, in experiment [4] (Day 7, dose 10 mg/kg), the Body weight was 19.93 ± 3.28 g. The molecule also returned a Body weight in [4] (Day 14, dose 10 mg/kg) of 19.17 ± 3.77 g. The same molecule showed a Body weight in experiment [4] (Day 28, dose 10 mg/kg) of 24.7 ± 1.21 g. This molecule also registered a Body weight in experiment [4] (Day −3, dose 10 mg/kg) of 24.6 ± 1.48 g.
Take `Cn1c(=O)c2c(ncn2CCN2CCN(c3ccccc3Cl)CC2)n(C)c1=O` [KMUP-1 HCl salt]: the “The changing amount of TGF-β in the lung tissue” value (shortened to “The changing amount of TGF-β”) in experiment [5] (drug 2.5 mg/kg oral) amounted to 52 ± 5.2%. The “Inhibition % of the MMP-9” value in experiment [6] is listed as 55%. Also, in experiment [7], the “Pulmonary arterial blood pressure (PABP), in words” value was “inhibit” and the PABP was 13 ± 1.7 mmHg.
Consider `CC(=O)N[C@@H](CS)C(=O)O.Cn1c(=O)c2c(ncn2CCN2CCN(c3ccccc3Cl)CC2)n(C)c1=O` [KMUP-1-Acetylcysteine], for which the “Inhibition % of the MMP-9” value in [6] came out at 68%.
Same read-out and setting: for `Cn1c(=O)c2c(ncn2CCN2CCN(c3ccccc3Cl)CC2)n(C)c1=O.N=C(N)NCCCC(N)C(=O)O` [KMUP-1-Arginine] the value was 65%; for `CC(C)(O)c1ccccc1CCC(SCC1(CC(=O)O)CC1)c1cccc(C=Cc2ccc3ccc(Cl)cc3n2)c1.Cn1c(=O)c2c(ncn2CCN2CCN(c3ccccc3Cl)CC2)n(C)c1=O` (stereo not drawn) [KMUP-1-Montelukast], 70%.
For `Cn1c(=O)c2c(ncn2CCN2CCN(c3ccccc3Cl)CC2)n(C)c1=O.O=C(O)c1cccnc1` [KMUP-1-Nicotinic acid], the “The changing amount of TGF-β” value in experiment [5] (drug 2.5 mg/kg oral) is listed as 42 ± 3.8%. Also, in [7], the “Pulmonary arterial blood pressure (PABP), in words” value was “inhibit” and the PABP is given as 12 ± 2.6 mmHg.
As for `COC(=O)[C@@H](N)CCCNC(=N)N[N+](=O)[O-]` [L-NAME, reference compound], in experiment [8], the “Change of eNOS expression by KMUP-1 (2.5 mM, 30 mins)” value is recorded as “reversed”. The “Change of MMP-9 expression by KMUP-1 (2.5 mM, 30 mins)” value in [9] is given as “reversed”.
Regarding `CCC(C)(C)C(=O)O[C@H]1C[C@@H](C)C=C2C=C[C@H](C)[C@H](CC[C@@H]3C[C@@H](O)CC(=O)O3)[C@H]21` [Simvastatin, reference compound], in experiment [1] (day 7, dose 5 mg/kg), the “BA (basophil)” value was determined as 0.22 ± 0.23, the “EO (eosinophil)” value is listed as 0.46 ± 0.4, the “LY (lymphocyte)” value is 1.5 ± 2.17 and the “MO (monocyte)” value was found to be 0.13 ± 0.19. Also, in [1] (day 7, dose 5 mg/kg), the “NE (neutrophil)” value came to 0.76 ± 0.53 and the “WBC total (white blood cell total count)” value came out at 3.09 ± 2.98. Moreover, in experiment [1] (day 28, dose 5 mg/kg), the “BA (basophil)” value amounted to 0.22 ± 0.22, the “EO (eosinophil)” value worked out at 0.46 ± 0.35, the “LY (lymphocyte)” value is recorded as 1.5 ± 3.03 and the “MO (monocyte)” value is given as 0.13 ± 0.26. In [1] (day 28, dose 5 mg/kg), the “NE (neutrophil)” value is 0.76 ± 0.61 and the “WBC total (white blood cell total count)” value turned out to be 3.09 ± 0.92. Besides, the “The changing amount of TGF-β” value in experiment [5] (drug 5 mg/kg oral) is recorded as 40 ± 4.3%. In addition, the “The amount of collagen” value in experiment [3] (dose 5 mg/kg) stood at 140.53 ± 0.05 μg/lung. For the same molecule, in experiment [4] (Day 7, dose 5 mg/kg), the Body weight is listed as 17.9 ± 1.56 g. In addition, the Body weight in experiment [4] (Day 14, dose 5 mg/kg) is given as 19.8 ± 2.31 g. Further, the Body weight in [4] (Day 28, dose 5 mg/kg) was found to be 20.3 ± 1.65 g. In experiment [4] (Day −3, dose 5 mg/kg), the Body weight is given as 23.5 ± 1.32 g.
